Data published in patent publication US10208046B2, “Nitrogen-containing heterocyclic compound” (Takeda Pharmaceutical Company Limited, priority 2014, dated 2019).

Target: T1, human M1 receptor (hCHRM1) (Homo sapiens, UniProt P11229)
T1 construct: expressed in transfected cells
T1 sequence (P11229 1-460): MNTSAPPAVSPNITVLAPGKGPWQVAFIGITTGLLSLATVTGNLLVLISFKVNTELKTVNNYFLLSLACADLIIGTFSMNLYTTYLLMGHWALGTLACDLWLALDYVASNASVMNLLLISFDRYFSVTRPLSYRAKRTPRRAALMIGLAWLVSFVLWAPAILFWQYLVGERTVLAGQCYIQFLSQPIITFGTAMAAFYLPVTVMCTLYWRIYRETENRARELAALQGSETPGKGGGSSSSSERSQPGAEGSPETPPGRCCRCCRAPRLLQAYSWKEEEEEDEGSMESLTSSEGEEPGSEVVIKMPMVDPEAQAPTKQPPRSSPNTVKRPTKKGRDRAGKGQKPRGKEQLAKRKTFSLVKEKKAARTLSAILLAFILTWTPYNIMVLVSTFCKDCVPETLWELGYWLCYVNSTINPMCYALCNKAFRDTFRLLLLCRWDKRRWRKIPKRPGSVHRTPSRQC
Assay: Measurement of M1 receptor positive allosteric modulator (M1PAM) activity, calcium fluorescence in CHO-K1 cells;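 on EC50: potency reported as IP value in nM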
Type: cell-based
Settings: for activity (%) at 10 μM: 10 μM test compound with acetylcholine at EC20, 100% = acetylcholine 1 μM, 0% = DMSO; for EC50: inflection point in the concentration-dependent curve, acetylcholine at EC20 (final 0.6-0.8 nM), CHO-K1 cells expressing human M1, Fluo-4, FLIPRtetra, read-out: IP value
Method: Measurement of M1 Receptor Positive Allosteric Modulator (M1PAM) Activity
The activity of a test compound in the presence of acetylcholine at EC20 concentration (final concentration 0.6-0.8 nM), which affords an action corresponding to about 20% of the maximum activity, was measured as PAM activity. The method is as follows. CHO-K1 cells stably expressing a human M1 receptor (hCHRM1) were plated on a 384-well black clear bottom plate (BD Falcon) at 5,000 cells/well, and cultured in an incubator at 37° C., 5% CO2 for 1 day. The medium in the cell plate was removed, and assay buffer A containing calcium indicator (Recording medium (DOJINDO LABORATORIES), 0.1% BSA (Wako Pure Chemical Industries, Ltd.), 2.5 μg/mL Fluo-4 AM (DOJINDO LABORATORIES), 0.08% Pluronic F127 (DOJINDO LABORATORIES), 1.25 mM probenecid (DOJINDO LABORATORIES)) was added at 30 μL/well. The cells were left standing in the incubator at 37° C., 5% CO2 for 30 min, and further left standing at room temperature for 30 min. A test compound prepared by diluting with assay buffer B (HBSS (Invitrogen), 20 mM HEPES (Invitrogen), 0.1% BSA) containing 2.4-3.2 nM acetylcholine was added at 10 μL/well, and the fluorescence was measured by FLIPRtetra (Molecular Devices) for 1 min every 1 second. With the definition that the amount of change in the fluorescence on addition of acetylcholine (final concentration 1 μM) is 100% and that on addition of DMSO instead of a test compound is 0%, the activity (%) of the test compound was calculated, and the inflection point in the concentration-dependent curve of the test compound was calculated as IP values.

activity (%) at 10 μM [%]	EC50 [nM]	Structure (SMILES)
91	17	CCn1cc(-c2ccc(CN3Cc4ncnc(OCC(C)(F)F)c4C3=O)cc2)cn1 [Example 1, 4-(2,2-difluoropropoxy)-6-(4-(1-ethyl-1H-pyrazol-4-yl)benzyl)-6,7-dihydro-5H-pyrrolo[3,4-d]pyrimidin-5-one]
108	31	CCn1cc(-c2ccc(CN3Cc4ncnc(OCC(F)F)c4C3=O)cc2)cn1 [Example 2, 4-(2,2-difluoroethoxy)-6-(4-(1-ethyl-1H-pyrazol-4-yl)benzyl)-6,7-dihydro-5H-pyrrolo[3,4-d]pyrimidin-5-one]
103	8.9	CCn1cc(-c2ccc(CN3Cc4ncnc(OCC(C)(F)F)c4C3=O)c(F)c2)cn1 [Example 3, 4-(2,2-difluoropropoxy)-6-(4-(1-ethyl-1H-pyrazol-4-yl)-2-fluorobenzyl)-6,7-dihydro-5H-pyrrolo[3,4-d]pyrimidin-5-one]
99	8.7	CCn1cc(-c2ccc(CN3Cc4ncnc(OCC(F)F)c4C3=O)c(F)c2)cn1 [Example 4, 4-(2,2-difluoroethoxy)-6-(4-(1-ethyl-1H-pyrazol-4-yl)-2-fluorobenzyl)-6,7-dihydro-5H-pyrrolo[3,4-d]pyrimidin-5-one]
105	17	Cc1nn(C)cc1-c1ccc(CN2Cc3ncnc(OCC(C)(C)F)c3C2=O)cc1 [Example 5, 6-(4-(1,3-dimethyl-1H-pyrazol-4-yl)benzyl)-4-(2-fluoro-2-methylpropoxy)-6,7-dihydro-5H-pyrrolo[3,4-d]pyrimidin-5-one]
102	77	Cn1ccc(-c2ccc(CN3Cc4ncnc(OCC(F)(F)F)c4C3=O)c(F)c2)n1 [Example 9, 6-(2-fluoro-4-(1-methyl-1H-pyrazol-3-yl)benzyl)-4-(2,2,2-trifluoroethoxy)-6,7-dihydro-5H-pyrrolo[3,4-d]pyrimidin-5-one]
87	23	Cc1cc(-c2ccc(CN3Cc4ncnc(OCC(F)(F)F)c4C3=O)cc2)ccn1 [Example 11, 6-(4-(2-methylpyridin-4-yl)benzyl)-4-(2,2,2-trifluoroethoxy)-6,7-dihydro-5H-pyrrolo[3,4-d]pyrimidin-5-one]
97	59	CC(F)(F)COc1nccc2c1C(=O)N(Cc1ccc(-c3cnn(CC(F)(F)F)c3)cc1)C2 [Example 12, 4-(2,2-difluoropropoxy)-2-(4-(1-(2,2,2-trifluoroethyl)-1H-pyrazol-4-yl)benzyl)-1,2-dihydro-3H-pyrrolo[3,4-c]pyridin-3-one]
100	55	CC(F)(F)COc1nccc2c1C(=O)N(Cc1ccc(-c3cnn(CC(F)F)c3)cc1)C2 [Example 13, 2-(4-(1-(2,2-difluoroethyl)-1H-pyrazol-4-yl)benzyl)-4-(2,2-difluoropropoxy)-1,2-dihydro-3H-pyrrolo[3,4-c]pyridin-3-one]

Structure (SMILES)	activity (%) at 10 μM [%]	EC50 [nM]
CCC(F)(F)COc1nccc2c1C(=O)N(Cc1ccc(-c3cn(C)nc3C)cc1F)C2 [Example 7, 4-(2,2-difluorobutoxy)-2-(4-(1,3-dimethyl-1H-pyrazol-4-yl)-2-fluorobenzyl)-1,2-dihydro-3H-pyrrolo[3,4-c]pyridin-3-one]	90	9.1
CCC(F)(F)COc1ncnc2c1C(=O)N(Cc1ccc(-c3cn(C)nc3C)cc1)C2 [Example 8, 4-(2,2-difluorobutoxy)-6-(4-(1,3-dimethyl-1H-pyrazol-4-yl)benzyl)-6,7-dihydro-5H-pyrrolo[3,4-d]pyrimidin-5-one]	109	23
CCC(F)(F)COc1ncnc2c1C(=O)N(Cc1ccc(C(=O)NC)cc1)C2 [Example 10, 4-((4-(2,2-difluorobutoxy)-5-oxo-5,7-dihydro-6H-pyrrolo[3,4-d]pyrimidin-6-yl)methyl)-N-methylbenzamide]	103	33
